Measurements taken from patent US11986471B2, “Compounds and methods of use” (Tango Therapeutics, Inc., priority 2018, dated 2024).

How the values were obtained:
PRMT5 [1] = target: T1, PRMT5 (Homo sapiens, UniProt O14744); assay: PRMT5 IC50 assay in the presence of SAM as cofactor; assay type: biochemical
T1 construct: purchased Viva (custom protein)
Summary of the method: (§1)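 For the SAM-containing format, dividing IC50 by 1.5 yields Ki; for the MTA-containing format the divisor is 13.5. A third format without cofactor gives IC50 alone.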

PRMT5 [2] = target: T1, PRMT5; assay: PRMT5 IC50 assay with no cofactor; assay type: biochemical
Summary of the method: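 Potency against PRMT5 is compared across cofactor states, where IC50 equals Ki×1.5 with SAM present and Ki×13.5 with MTA present.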

PRMT5 [3] = target: T1, PRMT5; assay: PRMT5 IC50 assay in the presence of MTA as cofactor; assay type: biochemical; conditions: for IC50: PRMT5, MTA as cofactor; for SAM/MTA Ratio: ratio between the Ki in the presence of SAM and the Ki in the presence of MTA
Summary of the method: as §1

HAP1 MTAP-intact = assay: SDMA in-cell western assay, HAP1 MTAP-intact cell line; assay type: cell-based; conditions: Homo sapiens
Summary of the method: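 IC50 values come from SDMA in-cell western staining of HAP1 cells. The MTAP-intact line carries endogenous MTAP, while its MTAP-deleted counterpart lacks MTAP entirely. A selectivity ratio of at least 3 fold marks a compound as MTAP-selective.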

HAP1 MTAP-deleted = assay: SDMA in-cell western assay, HAP1 MTAP-deleted cell line; assay type: cell-based; conditions: for IC50: Homo sapiens, HAP1 MTAP-deleted cell line; for MTAP Intact/Deleted Ratio: IC50 ratio HAP1 MTAP-intact / HAP1 MTAP-deleted
Summary of the method: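 Readout is cellular SDMA signal by in-cell western, with IC50 values derived from it. The cells are MTAP-null HAP1, matched to an isogenic MTAP-intact HAP1 line.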

T1 sequence (O14744 whole entry): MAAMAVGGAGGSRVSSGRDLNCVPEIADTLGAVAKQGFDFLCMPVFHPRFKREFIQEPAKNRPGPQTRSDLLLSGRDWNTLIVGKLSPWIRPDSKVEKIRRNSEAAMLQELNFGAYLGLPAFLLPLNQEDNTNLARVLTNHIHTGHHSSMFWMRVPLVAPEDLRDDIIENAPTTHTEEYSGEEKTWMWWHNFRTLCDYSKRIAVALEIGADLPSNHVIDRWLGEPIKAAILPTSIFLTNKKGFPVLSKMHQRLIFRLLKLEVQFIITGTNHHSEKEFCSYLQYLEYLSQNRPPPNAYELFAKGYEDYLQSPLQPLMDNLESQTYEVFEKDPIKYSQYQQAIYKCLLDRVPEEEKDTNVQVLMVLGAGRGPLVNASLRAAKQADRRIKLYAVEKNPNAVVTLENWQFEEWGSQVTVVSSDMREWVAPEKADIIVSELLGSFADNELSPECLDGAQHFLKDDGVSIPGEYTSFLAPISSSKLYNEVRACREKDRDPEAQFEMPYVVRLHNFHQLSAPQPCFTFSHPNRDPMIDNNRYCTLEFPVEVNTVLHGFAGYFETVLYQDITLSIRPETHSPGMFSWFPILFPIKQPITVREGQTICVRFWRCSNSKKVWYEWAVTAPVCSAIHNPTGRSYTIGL
T1 sequence (Q9BQA1 whole entry partner): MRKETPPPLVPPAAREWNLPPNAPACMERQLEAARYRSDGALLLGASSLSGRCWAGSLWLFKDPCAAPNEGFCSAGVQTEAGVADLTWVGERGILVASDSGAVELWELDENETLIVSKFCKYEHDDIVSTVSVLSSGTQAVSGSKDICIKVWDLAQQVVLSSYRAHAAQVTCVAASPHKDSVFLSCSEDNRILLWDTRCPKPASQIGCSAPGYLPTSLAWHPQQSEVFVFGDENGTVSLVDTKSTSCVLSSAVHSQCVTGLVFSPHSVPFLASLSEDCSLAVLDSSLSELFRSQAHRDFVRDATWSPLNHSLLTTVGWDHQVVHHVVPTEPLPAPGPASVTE

IC50 (PRMT5 [1]) | IC50 (PRMT5 [2]) | IC50 (PRMT5 [3]) | IC50 (HAP1 MTAP-intact) | IC50 (HAP1 MTAP-deleted) | SMILES | SAM/MTA Ratio (PRMT5 [3]) | MTAP Intact/Deleted Ratio (HAP1 MTAP-deleted)
50 to 500 nM | 500 to 5000 nM | 50 to 500 nM | 1000 to 10000 nM | < 1000 nM | COc1ccc(C(=O)N2CCc3cc(C(=O)NC[C@H](O)CN4CCc5cc(OCc6ocnc6C)ccc5C4)ccc3C2)cc1 [Compound 498, (S)—N-(2-hydroxy-3-(6-((4-methyloxazol-5-yl)methoxy)-3,4-dihydroisoquinolin-2(1H)-yl)propyl)-2-(4-methoxybenzoyl)-1,2,3,4-tetrahydroisoquinoline-6-carboxamide] | A (a Ki ratio greater than or equal to 10 fold between the Ki in the presence of SAM and the Ki in the presence of MTA) | B* (an IC50 ratio greater than or equal to 3 fold but lower than 10 fold between the IC50 in the HAP1 MTAP-intact cell line and the HAP1 MTAP-deleted cell line)
500 to 5000 nM | ≥ 5000 nM | 50 to 500 nM | ≥ 10000 nM | ≥ 10000 nM | CC(=O)N1CCN(c2nc(NC3COC3)cc(C(=O)NC[C@H](O)CN3CCc4c(ccc(OCc5ocnc5C)c4C)C3)n2)CC1 [Compound 499, 2-(4-acetylpiperazin-1-yl)-N-[(2S)-2-hydroxy-3-{5-methyl-6-[(4-methyl-1,3-oxazol-5-yl)methoxy]-1,2,3,4-tetrahydroisoquinolin-2-yl}propyl]-6-[(oxetan-3-yl)amino]pyrimidine-4-carboxamide] | A (a Ki ratio greater than or equal to 10 fold between the Ki in the presence of SAM and the Ki in the presence of MTA) | C* (an IC50 ratio of less than 3 fold between the IC50 in the HAP1 MTAP-intact cell line and the HAP1 MTAP-deleted cell line)
50 to 500 nM | 500 to 5000 nM | 50 to 500 nM | ≥ 10000 nM | < 1000 nM | Cc1ncoc1COc1ccc2c(c1C)CCN(C[C@@H](O)CNC(=O)c1cc(NC3CCC3)nc(OCCN(C)C)c1)C2 [Compound 500, 2-(cyclobutylamino)-6-[2-(dimethylamino)ethoxy]-N-[(2S)-2-hydroxy-3-{5-methyl-6-[(4-methyl-1,3-oxazol-5-yl)methoxy]-1,2,3,4-tetrahydroisoquinolin-2-yl}propyl]pyridine-4-carboxamide] | A (a Ki ratio greater than or equal to 10 fold between the Ki in the presence of SAM and the Ki in the presence of MTA) | A* (an IC50 ratio greater than or equal to 10 fold between the IC50 in the HAP1 MTAP-intact cell line and the HAP1 MTAP-deleted cell line)
50 to 500 nM | ≥ 5000 nM | 50 to 500 nM | ≥ 10000 nM | ≥ 10000 nM | Cc1ncoc1COc1ccc2c(c1Cl)CCN(C[C@@H](O)CNC(=O)c1cc(NC3CCCCC3)ncn1)C2 [Compound 501, N-[(2S)-3-[5-chloro-6-[(4-methyl-1,3-oxazol-5-yl)methoxy]-1,2,3,4-tetrahydroisoquinolin-2-yl]-2-hydroxypropyl]-6-(cyclohexylamino)pyrimidine-4-carboxamide] | A (a Ki ratio greater than or equal to 10 fold between the Ki in the presence of SAM and the Ki in the presence of MTA) | C* (an IC50 ratio of less than 3 fold between the IC50 in the HAP1 MTAP-intact cell line and the HAP1 MTAP-deleted cell line)
50 to 500 nM | 500 to 5000 nM | 50 to 500 nM | 1000 to 10000 nM | < 1000 nM | CC(=O)N1CCN(c2cc(C(=O)NC[C@H](O)CN3CCc4c(ccc(OCc5ocnc5C)c4C)C3)cc(NC3CCC3)n2)CC1 [Compound 502, 2-(4-acetylpiperazin-1-yl)-6-(cyclobutylamino)-N-[(2S)-2-hydroxy-3-{5-methyl-6-[(4-methyl-1,3-oxazol-5-yl)methoxy]-1,2,3,4-tetrahydroisoquinolin-2-yl}propyl]pyridine-4-carboxamide] | A (a Ki ratio greater than or equal to 10 fold between the Ki in the presence of SAM and the Ki in the presence of MTA) | A* (an IC50 ratio greater than or equal to 10 fold between the IC50 in the HAP1 MTAP-intact cell line and the HAP1 MTAP-deleted cell line)
50 to 500 nM | 500 to 5000 nM | 50 to 500 nM | ≥ 10000 nM | < 1000 nM | Cc1ncoc1COc1ccc2c(c1C)CCN(C[C@@H](O)CNC(=O)c1cc(NC3CCC3)nc(N3CCN(C)CC3)c1)C2 [Compound 503, 2-(cyclobutylamino)-N-[(2S)-2-hydroxy-3-{5-methyl-6-[(4-methyl-1,3-oxazol-5-yl)methoxy]-1,2,3,4-tetrahydroisoquinolin-2-yl}propyl]-6-(4-methylpiperazin-1-yl)pyridine-4-carboxamide] | A (a Ki ratio greater than or equal to 10 fold between the Ki in the presence of SAM and the Ki in the presence of MTA) | A* (an IC50 ratio greater than or equal to 10 fold between the IC50 in the HAP1 MTAP-intact cell line and the HAP1 MTAP-deleted cell line)
50 to 500 nM | ≥ 5000 nM | 50 to 500 nM | ≥ 10000 nM | ≥ 10000 nM | Cc1ncoc1COc1ccc2c(c1C)CCN(C[C@@H](O)CNC(=O)c1cc(CC(C)C)nc(NC3CCC3)c1)C2 [Compound 504, 2-(cyclobutylamino)-N-[(2S)-2-hydroxy-3-{5-methyl-6-[(4-methyl-1,3-oxazol-5-yl)methoxy]-1,2,3,4-trihydroisoquinolin-2-yl}propyl]-6-(2-methylpropyl)pyridine-4-carboxamide] | A (a Ki ratio greater than or equal to 10 fold between the Ki in the presence of SAM and the Ki in the presence of MTA) | C* (an IC50 ratio of less than 3 fold between the IC50 in the HAP1 MTAP-intact cell line and the HAP1 MTAP-deleted cell line)
50 to 500 nM | ≥ 5000 nM | 50 to 500 nM | ≥ 10000 nM | 1000 to 10000 nM | Cc1ncoc1COc1cc(F)c2c(c1)CCN(C[C@@H](O)CNC(=O)c1ccnc(NC3CCC3)c1)C2 [Compound 506, 2-(cyclobutylamino)-N-[(2S)-3-[8-fluoro-6-[(4-methyloxazol-5-yl)methoxy]-3,4-dihydro-1H-isoquinolin-2-yl]-2-hydroxy-propyl]pyridine-4-carboxamide] | A (a Ki ratio greater than or equal to 10 fold between the Ki in the presence of SAM and the Ki in the presence of MTA) | B* (an IC50 ratio greater than or equal to 3 fold but lower than 10 fold between the IC50 in the HAP1 MTAP-intact cell line and the HAP1 MTAP-deleted cell line)
50 to 500 nM | 500 to 5000 nM | 50 to 500 nM | ≥ 10000 nM | 1000 to 10000 nM | CC(=O)N1CCC(Nc2ccnc(C(=O)NC[C@H](O)CN3CCc4cc(OCc5cnco5)ccc4C3)c2)CC1 [Compound 507, (S)-4-((1-acetylpiperidin-4-yl)amino)-N-(2-hydroxy-3-(6-(oxazol-5-ylmethoxy)-3,4-dihydroisoquinolin-2(1H)-yl)propyl)picolinamide] | A (a Ki ratio greater than or equal to 10 fold between the Ki in the presence of SAM and the Ki in the presence of MTA) | B* (an IC50 ratio greater than or equal to 3 fold but lower than 10 fold between the IC50 in the HAP1 MTAP-intact cell line and the HAP1 MTAP-deleted cell line)
500 to 5000 nM | 500 to 5000 nM | 50 to 500 nM | 1000 to 10000 nM | < 1000 nM | O=C(NC[C@H](O)CN1CCc2cc(OCc3cnco3)ccc2C1)c1cc(NC2CCC2)ccn1 [Compound 509, (S)-4-(cyclobutylamino)-N-(2-hydroxy-3-(6-(oxazol-5-ylmethoxy)-3,4-dihydroisoquinolin-2(1H)-yl)propyl)picolinamide] | A (a Ki ratio greater than or equal to 10 fold between the Ki in the presence of SAM and the Ki in the presence of MTA) | C* (an IC50 ratio of less than 3 fold between the IC50 in the HAP1 MTAP-intact cell line and the HAP1 MTAP-deleted cell line)
50 to 500 nM | ≥ 5000 nM | 50 to 500 nM | ≥ 10000 nM | ≥ 10000 nM | CC(=O)N1CC(Nc2cc(C(=O)NC[C@H](O)CN3CCc4c(ccc(OCc5cnco5)c4C)C3)ccn2)C1 [Compound 512, (S)-2-((1-acetylazetidin-3-yl)amino)-N-(2-hydroxy-3-(5-methyl-6-(oxazol-5-ylmethoxy)-3,4-dihydroisoquinolin-2(1H)-yl)propyl)isonicotinamide] | A (a Ki ratio greater than or equal to 10 fold between the Ki in the presence of SAM and the Ki in the presence of MTA) | C* (an IC50 ratio of less than 3 fold between the IC50 in the HAP1 MTAP-intact cell line and the HAP1 MTAP-deleted cell line)

SMILES | IC50 (PRMT5 [1]) | IC50 (PRMT5 [2]) | IC50 (PRMT5 [3]) | IC50 (HAP1 MTAP-intact) | IC50 (HAP1 MTAP-deleted) | SAM/MTA Ratio (PRMT5 [3]) | MTAP Intact/Deleted Ratio (HAP1 MTAP-deleted)
O=C(NC[C@H](O)CN1CCc2cc(OCc3cnco3)c(F)cc2C1)c1ccnc(NC2CCC2)c1 [Compound 513, 2-(cyclobutylamino)-N-[(2S)-3-[7-fluoro-6-(oxazol-5-ylmethoxy)-3,4-dihydro-1H-isoquinolin-2-yl]-2-hydroxy-propyl]pyridine-4-carboxamide] | 500 to 5000 nM | ≥ 5000 nM | 50 to 500 nM | ≥ 10000 nM | 1000 to 10000 nM | A (a Ki ratio greater than or equal to 10 fold between the Ki in the presence of SAM and the Ki in the presence of MTA) | B* (an IC50 ratio greater than or equal to 3 fold but lower than 10 fold between the IC50 in the HAP1 MTAP-intact cell line and the HAP1 MTAP-deleted cell line)
